Results published in PubChem BioAssay (NCI).
Where “and” joins values, the source holds several entries; their conditions need not be identical. Equal entries are not always repeated.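 Cultured in 96-well plates, cells were exposed to test compound for 48 hours across five concentrations. At the GI50, growth is halved. TGI is the concentration that stops growth completely.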

Columns and labels:
Test in all cases: NCI-60 cell line screen, 48 h
[1] = tested on: A549 NSCLC
[2] = tested on: OVCAR-8 ovarian
[3] = tested on: SK-MEL-2 melanoma
[4] = tested on: NCI/ADR-RES ovarian
[5] = tested on: K-562 leukemia
[6] = tested on: SF-268 CNS
[7] = tested on: IGROV1 ovarian
[8] = tested on: SK-MEL-5 melanoma
[9] = tested on: NCI-H23 lung
[10] = tested on: SNB-19 CNS

SMILES | TGI [1] | TGI [2] | TGI [3] | TGI [4] | TGI [5] | TGI [6] | TGI [7] | TGI [8] | TGI [9] | TGI [10] | GI50 [1] | GI50 [2] | GI50 [3] | GI50 [4] | GI50 [5] | GI50 [6] | GI50 [7] | GI50 [8] | GI50 [9] | GI50 [10]
CCOC(=O)C#Cc1ccc([N+](=O)[O-])cc1 | 27 µM | 10.5 µM | 11.6 µM | 79.5 µM | 11.9 µM | 8.62 µM | 4.42 µM | 9.63 µM | 7.55 µM | 25.7 µM |  |  |  |  |  |  |  |  |  | 
CC1(C)CCC2(C(=O)O)CC[C@]3(C)C(=CCC4C5(C)CC[C@H](OC6OC(C(=O)O)C(O)C(OC7OC(CO)C(O)C(O)C7O)C6OC6OC(CO)C(O)C(O)C6O)C(C)(C)C5CCC43C)C2C1 (stereo not given in full) | > 100 µM | > 100 µM | > 100 µM | > 100 µM | > 100 µM | > 100 µM | > 100 µM | > 100 µM | 42.7 µM | > 100 µM | > 100 µM | > 100 µM | > 100 µM | > 100 µM | 81.1 µM | > 100 µM | > 100 µM | > 100 µM | 20.2 µM | > 100 µM
Oc1cccc(Cn2c(-c3cccc(O)c3O)nc3ccccc32)c1O | 40.9 µM | 53.1 µM | > 100 µM | 8.69 µM | > 100 µM | 28.7 µM | > 100 µM | 18.1 µM | 14.1 µM | > 100 µM | 14.1 µM | 11.7 µM | 42 µM | 2.34 µM | 5.56 µM | 4.74 µM | 34 µM | 5.76 µM | 3.02 µM | 13.8 µM
CC(C)(C)N1CC(OC(N)=O)C1 | > 100 µM | > 100 µM | > 100 µM | > 100 µM | > 100 µM | > 100 µM | > 100 µM | > 100 µM | > 100 µM | > 100 µM | > 100 µM | > 100 µM | > 100 µM | > 100 µM | > 100 µM | > 100 µM | > 100 µM | > 100 µM | > 100 µM | > 100 µM
COc1cc2c(Nc3ccc(Br)cc3F)ncnc2cc1OCC1CCN(C)CC1 | 15.9 µM and > 10 µM | 18 µM and > 10 µM | 10.9 µM and > 10 µM | 19.1 µM and > 10 µM | 11.8 µM and > 10 µM | 15 µM and > 10 µM | 3.61 µM and 5.27 µM | 8.94 µM and > 10 µM | 21.9 µM and > 10 µM | 18.3 µM and > 10 µM | 3.32 µM and 4.63 µM | 5 µM and 7.4 µM | 5.33 µM and > 10 µM | 5.58 µM and > 10 µM | 0.436 µM and 0.651 µM | 3.24 µM and 6.18 µM | 0.408 µM and 0.398 µM | 4.38 µM and 5.5 µM | 9.57 µM and > 10 µM | 4.7 µM and > 10 µM
C[C@@H](Oc1cc(NS(=O)(=O)N2CCC2)nc(SCc2cccc(F)c2F)n1)[C@@H](O)CO | > 100 µM | > 100 µM | > 100 µM | > 100 µM | > 100 µM | > 100 µM | > 100 µM | > 100 µM | > 100 µM | > 100 µM | > 100 µM | > 100 µM | > 100 µM | > 100 µM | > 100 µM | > 100 µM | > 100 µM | > 100 µM | > 100 µM | > 100 µM
